The values below come from US11858941B2, “Heterocyclic and heteroaryl compounds for treating Huntington's disease” (PTC THERAPEUTICS, INC., priority 2018, dated 2024).

A word on the IC50: it is the concentration that gives 50% inhibition.

This assay concerns Endogenous Huntingtin Protein. Briefly: Endogenous Huntingtin Protein Assay (Meso Scale Discovery ELISA-based electrochemiluminescence). The note with it: MSD plates coated with MW1 (expanded polyglutamine) or MAB2166 capture antibody; lysates. It counts as cell-based. The method, then:
Compounds of Formula (I) were tested using the Meso Scale Discovery (MSD) Assay provided in International Application No. PCT/US2016/066042, filed on Dec. 11, 2016 and claiming priority to United States Provisional Application U.S. 62/265,652 filed on Dec. 10, 2015, the entire contents of which are incorporated herein by reference.
The Endogenous Huntingtin Protein assay used in Example 1 was developed using the ELISA-based MSD electrochemiluminescence assay platform.
Endogenous Huntingtin Protein Assay
Meso Scale Discovery (MSD) 96-well or 384-well plates were coated overnight at 4° C. with MW1 (expanded polyglutamine) or MAB2166 monoclonal antibody (for capture) at a concentration of 1 μg/mL in PBS (30 μL per well). Plates were then washed three times with 300 μL wash buffer (0.05% Tween-20 in PBS) and blocked (100 μL blocking buffer; 5% BSA in PBS) for 4-5 hours at room temperature with rotational shaking and then washed three times with wash buffer.
Samples (25 μL) were transferred to the antibody-coated MSD plate and incubated overnight at 4° C. After removal of the lysates, the plate was washed three times with wash buffer, and 25 μL of #5656S (Cell signaling; rabbit monoclonal) secondary antibody (diluted to 0.25 μg/mL in 0.05% Tween-20 in blocking buffer) was added to each well and incubated with shaking for 1 Hour at room temperature. Following incubation with the secondary antibody, the wells were rinsed with wash buffer after which 25 μL of goat anti-rabbit SULFO TAG secondary detection antibody (required aspect of the MSD system) (diluted to 0.25 μg/mL in 0.05% Tween-20 in blocking buffer) was added to each well and incubated with shaking for 1 hour at room temperature. After rinsing three times with wash buffer, 150 μL of read buffer T with surfactant (MSD) were added to each empty well, and the plate was imaged on a SI 6000 imager (MSD) according to manufacturers' instructions provided for 96- or 384-well plates.
For orientation: In an ELISA, binding on a coated surface is turned into a signal by an enzyme label.

For `CC1(C)CC(n2nnc3cc(-c4ccc(-n5ccnn5)cc4O)nnc32)CC(C)(C)N1` [Cpd 72, 2-[3-(2,2,6,6-tetramethylpiperidin-4-yl)-3H-[1,2,3]triazolo[4,5-c]pyridazin-6-yl]-5-(1H-1,2,3-triazol-1-yl)phenol], the IC50 is 100 to 500 nM.

The compound `Cc1n[nH]cc1-c1ccc(-c2cc3nnn(C4CC(C)(C)NC(C)(C)C4)c3nn2)c(O)c1` [Cpd 108, 5-(3-methyl-1H-pyrazol-4-yl)-2-[3-(2,2,6,6-tetramethylpiperidin-4-yl)-3H-[1,2,3]triazolo[4,5-c]pyridazin-6-yl]phenol] registered an IC50 of no more than 100 nM.

In turn, `Cn1ncc(-c2ccc(-c3cc4nnn(C5CC(C)(C)NC(C)(C)C5)c4nn3)c(O)c2)n1` [Cpd 151, 5-(2-methyl-2H-1,2,3-triazol-4-yl)-2-[3-(2,2,6,6-tetramethylpiperidin-4-yl)-3H-[1,2,3]triazolo[4,5-c]pyridazin-6-yl]phenol] registered a half-maximal inhibitory concentration (IC50) of no more than 100 nM. For `C[C@]12CC[C@](C)(CC(n3nnc4cc(-c5ccc(-c6cn[nH]c6)cc5O)nnc43)C1)N2` (stereo partly drawn) [Cpd 57, 2-{3-[(1R,5S)-1,5-dimethyl-8-azabicyclo[3.2.1]octan-3-yl]-3H-[1,2,3]triazolo[4,5-c]pyridazin-6-yl}-5-(1H-pyrazol-4-yl)phenol] the value was no more than 100 nM; for `CC1(C)CC(n2nnc3cc(-c4ccc(-c5ccn6ccnc6c5)cc4O)nnc32)CC(C)(C)N1` [Cpd 90, 5-(imidazo[1,2-a]pyridin-7-yl)-2-[3-(2,2,6,6-tetramethylpiperidin-4-yl)-3H-[1,2,3]triazolo[4,5-c]pyridazin-6-yl]phenol], 100 to 500 nM; for `Cn1cc(-c2ccc(-c3cc4cnn(C5CC(C)(C)NC(C)(C)C5)c4nn3)c(O)c2)cn1` [Cpd 98, 5-(1-methyl-1H-pyrazol-4-yl)-2-[1-(2,2,6,6-tetramethylpiperidin-4-yl)-1H-pyrazolo[3,4-c]pyridazin-5-yl]phenol], no more than 100 nM. For `CC1(C)CC(n2ccc3nc(-c4cc(F)c(-c5cn[nH]c5)cc4F)cnc32)CC(C)(C)N1` [Cpd 16, 2-[2,5-difluoro-4-(1H-pyrazol-4-yl)phenyl]-5-(2,2,6,6-tetramethylpiperidin-4-yl)-5H-pyrrolo[2,3-b]pyrazine] the value was 100 to 500 nM; for `Cc1ccn(-c2ccc(-c3cc4nnn(C5CC(C)(C)NC(C)(C)C5)c4nn3)c(O)c2)n1` [Cpd 157, 5-(3-methyl-1H-pyrazol-1-yl)-2-(3-(2,2,6,6-tetramethylpiperidin-4-yl)-3H-[1,2,3]triazolo[4,5-c]pyridazin-6-yl)phenol], 100 to 500 nM. `CC1(C)CC(n2nnc3cc(-c4ccc(-c5ccnc6[nH]ccc56)cc4O)nnc32)CC(C)(C)N1` [Cpd 118, 5-(1H-pyrrolo[2,3-b]pyridin-4-yl)-2-[3-(2,2,6,6-tetramethylpiperidin-4-yl)-3H-[1,2,3]triazolo[4,5-c]pyridazin-6-yl]phenol] displayed an IC50 of 1000 to 3000 nM. Take `COc1cc(-c2ccc(-c3cc4nnn(C5CC(C)(C)NC(C)(C)C5)c4nn3)c(O)c2)ccn1` [Cpd 77, 5-(2-methoxypyridin-4-yl)-2-[3-(2,2,6,6-tetramethylpiperidin-4-yl)-3H-[1,2,3]triazolo[4,5-c]pyridazin-6-yl]phenol]: the IC50 is no more than 100 nM. To `CC1(C)CC(n2nnc3cc(-c4cc(F)c(-c5ccncc5)cc4O)nnc32)CC(C)(C)N1` [Cpd 87, 4-fluoro-5-(pyridin-4-yl)-2-[3-(2,2,6,6-tetramethylpiperidin-4-yl)-3H-[1,2,3]triazolo[4,5-c]pyridazin-6-yl]phenol] belongs 100 to 500 nM; to `CCCn1cc(-c2ccc(-c3cc4nnn(C5CC(C)(C)NC(C)(C)C5)c4nn3)c(O)c2)cn1` [Cpd 47, 5-(1-propyl-1H-pyrazol-4-yl)-2-[3-(2,2,6,6-tetramethylpiperidin-4-yl)-3H-[1,2,3]triazolo[4,5-c]pyridazin-6-yl]phenol], 1000 to 3000 nM; to `CCn1cc(-c2ccc(-c3cc4nnn(C5CC(C)(C)NC(C)(C)C5)c4nn3)c(O)c2)cn1` [Cpd 46, 5-(1-ethyl-1H-pyrazol-4-yl)-2-[3-(2,2,6,6-tetramethylpiperidin-4-yl)-3H-[1,2,3]triazolo[4,5-c]pyridazin-6-yl]phenol], 500 to 1000 nM. To `CC1(C)CC(n2nnc3cc(-c4ccc(-c5cn6ccnc6cn5)cc4O)nnc32)CC(C)(C)N1` [Cpd 142, 5-(imidazo[1,2-a]pyrazin-6-yl)-2-[3-(2,2,6,6-tetramethylpiperidin-4-yl)-3H-[1,2,3]triazolo[4,5-c]pyridazin-6-yl]phenol] belongs no more than 100 nM; to `CC1(C)CC(n2nnc3cc(-c4ccc(-c5ccnc(N)c5)cc4O)nnc32)CC(C)(C)N1` [Cpd 99, 5-(2-aminopyridin-4-yl)-2-[3-(2,2,6,6-tetramethylpiperidin-4-yl)-3H-[1,2,3]triazolo[4,5-c]pyridazin-6-yl]phenol], no more than 100 nM. To `CC1(C)CC(n2nnc3cc(-c4ccc(-c5ccc(O)cc5)cc4O)nnc32)CC(C)(C)N1` [Cpd 38, 4-[3-(2,2,6,6-tetramethylpiperidin-4-yl)-3H-[1,2,3]triazolo[4,5-c]pyridazin-6-yl]biphenyl-3,4′-diol] belongs no more than 100 nM; to `Cc1cnn(-c2ccc(-c3cc4nnn(C5CC(C)(C)NC(C)(C)C5)c4nn3)c(O)c2)c1` [Cpd 156, 5-(4-methyl-1H-pyrazol-1-yl)-2-(3-(2,2,6,6-tetramethylpiperidin-4-yl)-3H-[1,2,3]triazolo[4,5-c]pyridazin-6-yl)phenol], 100 to 500 nM. With `CC1(C)CC(n2nnc3cc(-c4ccc(-c5cn[nH]c5)c(F)c4F)nnc32)CC(C)(C)N1` [Cpd 13, 6-[2,3-difluoro-4-(1H-pyrazol-4-yl)phenyl]-3-(2,2,6,6-tetramethylpiperidin-4-yl)-3H-[1,2,3]triazolo[4,5-c]pyridazine], the IC50 is 100 to 500 nM. In turn, `CC1(C)CC(n2nnc3cc(-c4ccc(-c5ccc6nncn6n5)cc4O)nnc32)CC(C)(C)N1` [Cpd 152, 2-[3-(2,2,6,6-tetramethylpiperidin-4-yl)-3H-[1,2,3]triazolo[4,5-c]pyridazin-6-yl]-5-([1,2,4]triazolo[4,3-b]pyridazin-6-yl)phenol] returned an IC50 of 100 to 500 nM. `CC1(C)CC(n2nnc3cc(-c4ccc(-c5ccccn5)cc4O)nnc32)CC(C)(C)N1` [Cpd 61, 5-(pyridin-2-yl)-2-[3-(2,2,6,6-tetramethylpiperidin-4-yl)-3H-[1,2,3]triazolo[4,5-c]pyridazin-6-yl]phenol] gave an IC50 of 1000 to 3000 nM. For `CC1(C)CC(n2nnc3cc(-c4ccc(-c5cnn(C(F)F)c5)cc4O)nnc32)CC(C)(C)N1` [Cpd 71, 5-[1-(difluoromethyl)-1H-pyrazol-4-yl]-2-[3-(2,2,6,6-tetramethylpiperidin-4-yl)-3H-[1,2,3]triazolo[4,5-c]pyridazin-6-yl]phenol] the value was 100 to 500 nM; for `CC1(C)CC(n2nnc3cc(-c4ccc(-c5ccnc(OC(F)F)c5)cc4O)nnc32)CC(C)(C)N1` [Cpd 114, 5-[2-(difluoromethoxy)pyridin-4-yl]-2-[3-(2,2,6,6-tetramethylpiperidin-4-yl)-3H-[1,2,3]triazolo[4,5-c]pyridazin-6-yl]phenol], 1000 to 3000 nM; for `CC(C)(C)NC1CC(n2nnc3cc(-c4ccc(-c5cn[nH]c5)cc4O)nnc32)C1` (stereo not shown) [Cpd 170, 2-{3-[3-(tert-butylamino)cyclobutyl]-3H-[1,2,3]triazolo[4,5-c]pyridazin-6-yl}-5-(1H-pyrazol-4-yl)phenol], 1000 to 3000 nM. In turn, `COc1cc(-c2ccc(-c3cc4nnn(C5CC(C)(C)NC(C)(C)C5)c4nn3)c(O)c2)ncn1` [Cpd 113, 5-(6-methoxypyrimidin-4-yl)-2-[3-(2,2,6,6-tetramethylpiperidin-4-yl)-3H-[1,2,3]triazolo[4,5-c]pyridazin-6-yl]phenol] showed an IC50 of no more than 100 nM.

With `CC1(C)CC(c2csc3cc(-c4ccc(-c5cn[nH]c5)cc4O)nnc23)CC(C)(C)N1` [Cpd 24, 5-(1H-pyrazol-4-yl)-2-[7-(2,2,6,6-tetramethylpiperidin-4-yl)thieno[3,2-c]pyridazin-3-yl]phenol], the IC50 is no more than 100 nM. For `Cc1nc2cc(-c3ccc(-c4cn[nH]c4)cc3O)nnc2n1C1CC(C)(C)NC(C)(C)C1` [Cpd 5, 2-[6-methyl-7-(2,2,6,6-tetramethylpiperidin-4-yl)-7H-imidazo[4,5-c]pyridazin-3-yl]-5-(1H-pyrazol-4-yl)phenol] the value was no more than 100 nM.

The compound `CC1(C)CC(n2ncc3cc(-c4ccc(-c5cccnc5)cc4O)nnc32)CC(C)(C)N1` [Cpd 166, 5-(pyridin-3-yl)-2-[1-(2,2,6,6-tetramethylpiperidin-4-yl)-1H-pyrazolo[3,4-c]pyridazin-5-yl]phenol] returned an IC50 of 100 to 500 nM. For `Cn1ccc(-c2cc(O)c(-c3cc4nnn(C5CC(C)(C)NC(C)(C)C5)c4nn3)cc2F)cc1=O` [Cpd 55, 4-{2-fluoro-5-hydroxy-4-[3-(2,2,6,6-tetramethylpiperidin-4-yl)-3H-[1,2,3]triazolo[4,5-c]pyridazin-6-yl]phenyl}-1-methylpyridin-2(1H)-one] the value was 100 to 500 nM.
